Reference: ChEMBL document CHEMBL6121030, “Asymmetric Synthesis, Structure Determination, and Biologic Evaluation of Isomers of TLAM as PFK1 Inhibitors” (ACS Med Chem Lett, 2025)

system: HeLa; assay: Effect on mitochondrial respiration in human HeLa cells assessed as increase in OCR/ECAR ratio incubated for 24 hrs by XFe96 extracellular flux analyzer assay; type: functional, cell-based

SMILES | Activity
O=C(O)[C@H]1C2C=CC(C2)[C@H]1C(=O)N1CCc2c([nH]c3ccccc23)[C@H]1C(F)(F)F (stereo partly specified) | Active; Significantly Increased

system: not listed separately; assay: Inhibition of recombinant PFK1 (unknown origin) extracted from baculovirus-infected Sf9 cells incubated for 45 min by ADP-Glo kinase assay; design: species or system Homo sapiens

IC50 [µM] | SMILES
> 100 | O=C(O)[C@@H]1C2C=CC(C2)[C@@H]1C(=O)N1CCc2c([nH]c3ccccc23)[C@H]1C(F)(F)F (stereo partly specified)
2.7 | O=C(O)C1C2C=CC(C2)C1C(=O)N1CCc2c([nH]c3ccccc23)C1C(F)(F)F (stereo unspecified)
2.1 | O=C(O)[C@H]1C2C=CC(C2)[C@H]1C(=O)N1CCc2c([nH]c3ccccc23)[C@H]1C(F)(F)F (stereo partly specified)

Second part, the molecule before the results:

SMILES | IC50 [µM]
O=C(O)[C@H]1C2C=CC(C2)[C@H]1C(=O)N1CCc2c([nH]c3ccccc23)[C@@H]1C(F)(F)F (stereo partly specified) | 25
O=C(O)[C@@H]1C2C=CC(C2)[C@@H]1C(=O)N1CCc2c([nH]c3ccccc23)[C@@H]1C(F)(F)F (stereo partly specified) | 4.7
